Reference: patent publication US11753445B2, “Therapeutic peptides” (COHBAR, INC., priority 2016, dated 2023)
Peptide text beside a SMILES is read from it.

Legend:
3T3-L1 Adipocytes = assay: Free fatty acid levels in cultured mouse 3T3-L1 adipocytes, isoproterenol stimulated (Example 2); format: cell-based; conditions: test peptides 25 μM; isoproterenol 1 nM
Summary of the method: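 3T3-L1 cells differentiated 12–17 days into adipocytes, then exposed to test peptides at 25 μM final for 18–20 h, then 1 h, then 3 h with isoproterenol (1 nM) at 37 °C. Free fatty acids in the medium measured colorimetrically at 540 nm, corrected for untreated background and expressed relative to isoproterenol-only cells.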

[1] = Stability in mouse plasma, peptides 10 uM (Example 15); format: in vitro ADME; conditions: mouse plasma 37° C., peptide 10 uM; for remaining at 0.25 h, 10 uM / remaining at 0.5 h, 10 uM / remaining at 1 h, 10 uM / remaining at 2 h, 10 uM / remaining at 3 h, 10 uM: pooled mouse plasma; for remaining at 0.25 h, 10 uM: 15 min, read-out: % Remaining at Each Time Point: 15 min; for remaining at 0.5 h, 10 uM: 30 min, read-out: % Remaining at Each Time Point: 30 min; for remaining at 1 h, 10 uM: 60 min, read-out: % Remaining at Each Time Point: 60 min; for remaining at 2 h, 10 uM: 120 min, read-out: % Remaining at Each Time Point: 120 min; for remaining at 3 h, 10 uM: 180 min, read-out: % Remaining at Each Time Point: 180 min
Experimental: Peptides (10 uM) were incubated in pooled mouse plasma at 37° C. and samples were removed and immediately analyzed for the concentration of intact peptide by LC/MS/MS over the course of 3 hours. The percent of peptide remaining in plasma at each time point was calculated relative to the initial peak area (Table 13).

Row | % Remaining at Each Time Point: 0 min [1] [%] | remaining at 0.25 h, 10 uM [1] [%] | remaining at 0.5 h, 10 uM [1] [%] | remaining at 1 h, 10 uM [1] [%] | remaining at 2 h, 10 uM [1] [%] | remaining at 3 h, 10 uM [1] [%] | Compound | Free Fatty Acid Levels in 3T3-L1 Adipocytes Expressed as a Percent of Isoproterenol Control: Percent of Control Value (3T3-L1 Adipocytes) [%]
1 | 100 | 90 | 81.9 | 77.4 | 69.2 | 67 | CC[C@H](C)[C@H](NC(=O)[C@H](Cc1ccc(O)cc1)NC(=O)[C@H](CC(N)=O)NC(=O)[C@H](CCSC)NC(=O)[C@H](CCC(=O)O)NC(=O)[C@H](CCC(N)=O)NC(=O)[C@H](Cc1c[nH]c2ccccc12)NC(=O)[C@H](CCCNC(=N)N)NC(=O)[C@@H](C)N)C(=O)N[C@@H](Cc1ccccc1)C(=O)N[C@@H](Cc1ccc(O)cc1)C(=O)N1CCC[C@H]1C(=O)N[C@@H](CCCNC(=N)N)C(=O)O [compound 288] (HELM PEPTIDE1{[dA].R.W.Q.E.M.N.Y.I.F.Y.P.R}$$$$V2.0) | 93.0
2 | 100 | 82.9 | 74.6 | 78.4 | 77.2 | 75.6 | CCCCCCCCCCCCCCCC(=O)N[C@@H](CCSC)C(=O)N[C@@H](CCCNC(=N)N)C(=O)N[C@@H](Cc1c[nH]c2ccccc12)C(=O)N[C@@H](CCC(N)=O)C(=O)N[C@@H](CCC(=O)O)C(=O)N[C@@H](CCSC)C(=O)N[C@@H](CC(N)=O)C(=O)N[C@@H](Cc1ccc(O)cc1)C(=O)N[C@H](C(=O)N[C@@H](Cc1ccccc1)C(=O)N[C@@H](Cc1ccc(O)cc1)C(=O)N1CCC[C@H]1C(=O)N[C@@H](CCCNC(=N)N)C(=O)O)[C@@H](C)CC [compound 289] (HELM PEPTIDE1{[CCCCCCCCCCCCCCCC(=O)[*:2]].M.R.W.Q.E.M.N.Y.I.F.Y.P.R}$$$$V2.0) | 94.5
3 | 100 | 88.4 | 74.7 | 57.1 | 36.4 | 25.9 | Ac-MRWQEMNYIFYPR-OH [compound 286] | 94.8
4 | 100 | 64 | 45.2 | 26.8 | 8.76 | 2.93 | H-MRWQEMNYIFYP-NH2 [compound 287] | 78.1

More lines, now with the values behind:

Row | Compound | % Remaining at Each Time Point: 0 min [1] [%] | remaining at 0.25 h, 10 uM [1] [%] | remaining at 0.5 h, 10 uM [1] [%] | remaining at 1 h, 10 uM [1] [%] | remaining at 2 h, 10 uM [1] [%] | remaining at 3 h, 10 uM [1] [%] | Free Fatty Acid Levels in 3T3-L1 Adipocytes Expressed as a Percent of Isoproterenol Control: Percent of Control Value (3T3-L1 Adipocytes) [%]
5 | H-MRWQEMNYIFYP-OH [compound 282] | 100 | 34.9 | 25.7 | 1.92 | 0.41 | 0.29 | 71.8
6 | H-QEMGYIFYPRKL-OH [compound 270] | 100 | 13.8 | 3.22 | 0.59 | 0.36 | 0.21 | 66.9
7 | H-RWQEENYIAYPR-OH [compound 260] | 100 | 79.4 | 68.8 | 53.1 | 35.7 | 35.9 | 75.9
8 | H-RWQEEQYIAEPR-OH [compound 266] | 100 | 70.7 | 72.3 | 38.3 | 74.8 | 51.1 | 72.7
9 | H-RWQEEQYIAYPR-OH [compound 265] | 100 | 83.3 | 74.5 | 54.9 | 56 | 51.7 | 66.7
